From patent US8217063B2, “Lactam-substituted dicarboxylic acids and use thereof” (Bayer Intellectual Property GmbH, priority 2007, dated 2012)

Columns and labels:
[1] = target: T1, recombinant guanylate cyclase reporter cell line (Rattus norvegicus, UniProt P20595); assay: sGC-activating activity in the CHO reporter cell in vitro; type: cell-based
T1 construct: expressed in transfected cells; host or cells: CHO
T1 sequence (P20595 1-619): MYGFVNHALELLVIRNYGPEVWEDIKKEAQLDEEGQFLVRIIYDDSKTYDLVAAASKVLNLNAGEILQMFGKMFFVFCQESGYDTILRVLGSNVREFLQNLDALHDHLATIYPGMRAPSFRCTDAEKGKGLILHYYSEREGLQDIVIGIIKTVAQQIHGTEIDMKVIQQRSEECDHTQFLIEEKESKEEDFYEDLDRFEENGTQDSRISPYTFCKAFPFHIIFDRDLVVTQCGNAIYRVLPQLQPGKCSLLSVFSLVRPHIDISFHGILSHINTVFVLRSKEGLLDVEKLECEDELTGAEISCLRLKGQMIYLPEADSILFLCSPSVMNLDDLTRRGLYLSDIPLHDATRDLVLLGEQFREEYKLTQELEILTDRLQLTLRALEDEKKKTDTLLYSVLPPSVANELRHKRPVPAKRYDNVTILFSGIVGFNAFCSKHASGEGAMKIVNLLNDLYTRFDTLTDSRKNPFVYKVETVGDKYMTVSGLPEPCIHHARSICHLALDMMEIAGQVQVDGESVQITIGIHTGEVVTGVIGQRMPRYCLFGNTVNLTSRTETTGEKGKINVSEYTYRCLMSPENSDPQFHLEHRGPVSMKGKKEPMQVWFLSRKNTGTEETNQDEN
T1 sequence (P19686 1-690 partner): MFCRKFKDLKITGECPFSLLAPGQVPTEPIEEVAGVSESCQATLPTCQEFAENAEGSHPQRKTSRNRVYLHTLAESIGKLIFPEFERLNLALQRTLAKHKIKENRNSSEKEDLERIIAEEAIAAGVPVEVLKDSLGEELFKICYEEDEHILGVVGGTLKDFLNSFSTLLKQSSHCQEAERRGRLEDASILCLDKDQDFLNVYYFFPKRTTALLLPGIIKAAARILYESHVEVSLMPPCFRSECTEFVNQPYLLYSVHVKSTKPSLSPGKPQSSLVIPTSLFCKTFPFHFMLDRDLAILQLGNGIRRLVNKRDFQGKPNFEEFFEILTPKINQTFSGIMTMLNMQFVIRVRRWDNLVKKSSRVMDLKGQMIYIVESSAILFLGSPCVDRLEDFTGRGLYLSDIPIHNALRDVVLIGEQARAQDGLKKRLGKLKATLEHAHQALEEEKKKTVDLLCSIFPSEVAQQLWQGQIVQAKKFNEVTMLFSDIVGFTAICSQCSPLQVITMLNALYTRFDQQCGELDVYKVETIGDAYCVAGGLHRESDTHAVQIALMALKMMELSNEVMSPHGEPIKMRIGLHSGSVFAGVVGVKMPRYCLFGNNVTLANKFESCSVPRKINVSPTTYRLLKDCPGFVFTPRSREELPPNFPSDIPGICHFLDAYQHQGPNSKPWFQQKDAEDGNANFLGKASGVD
Description: B-3. Action at Recombinant Guanylate Cyclase Reporter Cell Lines
The cellular action of the compounds according to the invention is determined using a recombinant guanylate cyclase reporter cell line, as described in F. Wunder et al., Anal. Biochem. 339, 104-112 (2005).

saphenous artery = assay: Vasorelaxant effect in vitro (phenylephrine-contracted artery rings); design: species or system Rabbits; conditions: Oryctolagus cuniculus; rabbit saphenous artery rings, contraction induced by phenylephrine
Description: B-1. Vasorelaxant Effect In Vitro:
Rabbits are anesthetized and sacrificed by intravenous injection of thiopental sodium (about 50 mg/kg) and exsanguinated. The saphenous artery is removed and divided into rings 3 mm wide. The rings are mounted singly on in each case a pair of triangular hooks open at the end and made of 0.3 mm-thick special wire (Remanium®). Each ring is placed under an initial tension in 5 ml organ baths with Krebs-Henseleit solution which is at 37° C., is gassed with carbogen and has the following composition: NaCl 119 mM; KCl 4.8 mM; CaCl2×2H2O 1 mM; MgSO4×7H2O 1.4 mM; KH2PO4 1.2 mM; NaHCO3 25 mM; glucose 10 mM; bovine serum albumin 0.001%. The force of contraction is detected with Statham UC2 cells, amplified and digitized via A/D converters (DAS-1802 HC, Keithley Instruments, Munich) and recorded in parallel on chart recorders. Contractions are induced by addition of phenylephrine.
After several (generally 4) control cycles, the substance to be investigated is added in each further run in increasing dosage, and the height of the contraction achieved under the influence of the test substance is compared with the height of the contraction reached in the last preceding run. The concentration necessary to reduce the contraction reached in the preceding control by 50% is calculated from this (IC50). The standard application volume is 5 μl. The proportion of DMSO in the bath solution corresponds to 0.1%.

Heme-containing sGC = target: T2, Heme-containing sGC (Rattus norvegicus, UniProt P20595); assay: Stimulation of recombinant soluble guanylate cyclase (sGC) in vitro, heme-containing enzyme; type: biochemical; conditions: 0.0 μM Example 3
T2 construct: made in house; host or cells: baculovirus/Sf9
T2 sequence (P20595 1-619): T1 sequence (P20595 1-619)
T2 sequence (P19686 1-690 partner): T1 sequence (P19686 1-690 partner)
Text: B-2. Stimulation of Recombinant Soluble Guanylate Cyclase (sGC) In Vitro:
Hoenicka, E. M. Becker, H. Apeler, T. Sirichoke, H. Schroeder, R. Gerzer and J.-P. Stasch, “Purified soluble guanylyl cyclase expressed in a baculovirus/Sf9 system: Stimulation by YC-1, nitric oxide, and carbon oxide”, J. Mol. Med. 77 (1999), 14-23. The heme-free guanylate cyclase is obtained by adding Tween 20 to the sample buffer (0.5% in the final concentration).
The activation of sGC by a test substance is reported as n-fold stimulation of the basal activity.

Row | Compound | MEC (minimum effective concentration) [1] [nM] | IC50 (saphenous artery) [nM] | further results
1 | O=C(O)c1ccc(CCC(/C=C/c2ccccc2OCCCN2CCOCC2=O)Cc2ccc(C(=O)O)cc2)cc1 (single isomer, unassigned) [Example 4, 4-[(4E)-3-(4-Carboxybenzyl)-5-{2-[3-(3-oxomorpholin-4-yl)propoxy]phenyl}pent-4-en-1-yl]-benzoic acid] | 2 | 330 | –
2 | O=C(O)c1ccc(CCC(/C=C/c2cc(F)ccc2OCCCN2CCCC2=O)CCc2ccc(C(=O)O)cc2)cc1 [Example 1, 4-[(4E)-3-[2-(4-Carboxyphenyl)ethyl]-5-{5-fluoro-2-[3-(2-oxopyrrolidin-1-yl)propoxy]phenyl}-pent-4-en-1-yl]benzoic acid] | 3 | 390 | –
3 | O=C(O)c1ccc(CCC(/C=C/c2ccccc2OCCCCCN2CCOC2=O)Cc2ccc(C(=O)O)cc2)cc1 (racemic) [Example 8, 4-[(4E)-3-(4-Carboxybenzyl)-5-(2-{[5-(2-oxo-1,3-oxazolidin-3-yl)pentyl]oxy}phenyl)pent-4-en-1-yl]benzoic acid] | 1 | – | –
4 | O=C(O)c1ccc(CCC(/C=C/c2cc(F)ccc2OCCCN2CCCC2=O)Cc2ccc(C(=O)O)cc2)cc1 (single isomer, unassigned) [Example 6, 4-[(4E)-3-(4-Carboxybenzyl)-5-{5-fluoro-2-[3-(2-oxopyrrolidin-1-yl)propoxy]phenyl}pent-4-en-1-yl]benzoic acid] | 3 | 135 | –
5 | CC1OCCN(CCCCCOc2ccccc2/C=C/C(CCc2ccc(C(=O)O)cc2)Cc2ccc(C(=O)O)cc2)C1=O (centres unmarked) [Example 9, 4-[(4E)-3-(4-Carboxybenzyl)-5-(2-[5-(2-methyl-3-oxomorpholin-4-yl)pentyl]oxy 1-phenyl)pent-4-en-1-yl]benzoic acid] | 1 | – | –
6 | O=c1onc2cnc3ccccc3n12 [ODQ, 1H-1,2,4-oxadiazole-(4,3a)-quinoxalin-1-one, reference compound] | – | – | Stimulation (n-fold) of sGC with ODQ alone (Heme-containing sGC; 10 μM ODQ): 3.9 n-fold
7 | O=C(O)c1ccc(CCC(/C=C/c2ccccc2OCCCCCN2CCCCC2=O)Cc2ccc(C(=O)O)cc2)cc1 (racemic) [Example 7, 4-[(4E)-3-(4-Carboxybenzyl)-5-(2-{[5-(2-oxopiperidin-1-yl)pentyl]oxy}phenyl)pent-4-en-1-yl]-benzoic acid] | 1 | – | –
8 | O=C(O)c1ccc(CCC(/C=C/c2ccccc2OCCCCN2CCCC2=O)Cc2ccc(C(=O)O)cc2)cc1 (racemic) [Example 11, 4-[(4E)-3-(4-Carboxybenzyl)-5-{2-[4-(2-oxopyrrolidin-1-yl)butoxy]phenyl}pent-4-en-1-yl]benzoic acid] | <1 | – | –
9 | O=C(O)c1ccc(CCC(/C=C/c2ccccc2OCCN2CCOC2=O)Cc2ccc(C(=O)O)cc2)cc1 (racemic) [Example 12, 4-[(4E)-3-(4-Carboxybenzyl)-5-{2-[2-(2-oxo-1,3-oxazolidin-3-yl)ethoxy]phenyl}pent-4-en-1-yl]-benzoic acid] | 100 | – | –
10 | O=C(O)c1ccc(CCC(/C=C/c2ccccc2OCCCN2CCCC2=O)CCc2ccc(C(=O)O)cc2)cc1 [Example 2, 4-[(4E)-3-[2-(4-Carboxyphenyl)ethyl]-5-{2-[3-(2-oxopyrrolidin-1-yl)propoxy]phenyl}pent-4-en-1-yl]benzoic acid] | 3 | 255 | –
11 | CCN(CC)[N+]([O-])=NO [DEA/NO, 2-(N,N-diethylamino)diazenolate 2-oxide, reference compound] | – | – | Stimulation (n-fold) of sGC by DEA/NO alone (Heme-containing sGC; 0.1 μM DEA/NO): 18.5 n-fold
12 | O=C(O)c1ccc(CCC(/C=C/c2ccccc2OCCCN2CCOC2=O)Cc2ccc(C(=O)O)cc2)cc1 (single isomer, unassigned) [Example 5, 4-[(4E)-3-(4-Carboxybenzyl)-5-{2-[3-(2-oxo-1,3-oxazolidin-3-yl)propoxy]phenyl}pent-4-en-1-yl]-benzoic acid] | – | 58 | –
13 | CN1CCCN(CCCCCOc2ccccc2/C=C/C(CCc2ccc(C(=O)O)cc2)Cc2ccc(C(=O)O)cc2)C1=O (racemic) [Example 10, 4-[(4E)-3-(4-Carboxybenzyl)-5-(2-{[5-(3-methyl-2-oxotetrahydropyrimidin-1(2H)-yl)pentyl]oxy}-phenyl)pent-4-en-1-yl]benzoic acid] | 3 | – | –
